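Results reflect a 48-hour exposure of cells in 96-well plates to compound at five concentrations. Here, GI50 denotes the concentration required for 50% inhibition of growth. TGI marks complete inhibition of growth.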
Columns and labels:
Assay in all cases: NCI-60 cell line screen, 48 h; in the data active = GI50 below about 0.43 µM; inactive = the rest
786-0 renal = system: 786-0 renal
A498 renal = system: A498 renal
A549 NSCLC = system: A549 NSCLC
ACHN renal = system: ACHN renal
BT-549 breast = system: BT-549 breast
CAKI-1 renal = system: CAKI-1 renal
CCRF-CEM leukemia = system: CCRF-CEM leukemia
COLO 205 colon = system: COLO 205 colon
DU-145 prostate = system: DU-145 prostate
EKVX NSCLC = system: EKVX NSCLC
HCC-2998 colon = system: HCC-2998 colon
HCT-116 colon = system: HCT-116 colon
HCT-15 colon = system: HCT-15 colon
HL-60(TB) leukemia = system: HL-60(TB) leukemia
HOP-62 NSCLC = system: HOP-62 NSCLC
HOP-92 NSCLC = system: HOP-92 NSCLC
HS 578T breast = system: HS 578T breast
HT29 colon = system: HT29 colon
IGROV1 ovarian = system: IGROV1 ovarian
K-562 leukemia = system: K-562 leukemia
KM12 colon = system: KM12 colon
LOX IMVI melanoma = system: LOX IMVI melanoma
M14 melanoma = system: M14 melanoma
MALME-3M melanoma = system: MALME-3M melanoma
MCF7 breast = system: MCF7 breast
MDA-MB-231 breast = system: MDA-MB-231 breast
MDA-MB-435 = system: MDA-MB-435
MOLT-4 leukemia = system: MOLT-4 leukemia
NCI-H226 lung = system: NCI-H226 lung
NCI-H23 lung = system: NCI-H23 lung
NCI-H460 lung = system: NCI-H460 lung
NCI-H522 lung = system: NCI-H522 lung
NCI/ADR-RES ovarian = system: NCI/ADR-RES ovarian
OVCAR-3 ovarian = system: OVCAR-3 ovarian
OVCAR-4 ovarian = system: OVCAR-4 ovarian
OVCAR-5 ovarian = system: OVCAR-5 ovarian
OVCAR-8 ovarian = system: OVCAR-8 ovarian
PC-3 prostate = system: PC-3 prostate
RPMI-8226 leukemia = system: RPMI-8226 leukemia
SF-268 CNS = system: SF-268 CNS
SF-295 CNS = system: SF-295 CNS
SF-539 CNS = system: SF-539 CNS
SK-MEL-2 melanoma = system: SK-MEL-2 melanoma
SK-MEL-28 melanoma = system: SK-MEL-28 melanoma
SK-MEL-5 melanoma = system: SK-MEL-5 melanoma
SK-OV-3 ovarian = system: SK-OV-3 ovarian
SN12C renal = system: SN12C renal
SNB-19 CNS = system: SNB-19 CNS
SNB-75 CNS = system: SNB-75 CNS
SR leukemia = system: SR leukemia
SW-620 colon = system: SW-620 colon
T-47D breast = system: T-47D breast
TK-10 renal = system: TK-10 renal
U251 CNS = system: U251 CNS
UACC-257 melanoma = system: UACC-257 melanoma
UACC-62 melanoma = system: UACC-62 melanoma
UO-31 renal = system: UO-31 renal

CCN1C(=O)N(CC)C2SC(N/N=C/c3cccs3)=NC21 (stereo not drawn)
3200 nM: TGI (HT29 colon)
> 32600 nM: TGI (U251 CNS)
723 nM: TGI (COLO 205 colon)
> 23300 nM: TGI (HOP-92 NSCLC)
3360 nM: TGI (SK-MEL-5 melanoma)
205 nM: TGI (MDA-MB-435)
1270 nM: TGI (BT-549 breast)
> 93800 nM: TGI (HCC-2998 colon)
705 nM: TGI (A498 renal)
823 nM: TGI (SF-539 CNS)
386 nM: TGI (NCI-H522 lung)
2070 nM: TGI (OVCAR-3 ovarian)
5430 nM: TGI (HCT-116 colon)
inactive: GI50 (786-0 renal) 643 nM | GI50 (A549 NSCLC) 431 nM | GI50 (ACHN renal) 581 nM | GI50 (DU-145 prostate) 483 nM | GI50 (EKVX NSCLC) 655 nM | GI50 (HOP-62 NSCLC) 470 nM | GI50 (HOP-92 NSCLC) 922 nM | GI50 (IGROV1 ovarian) 579 nM | GI50 (LOX IMVI melanoma) 446 nM | GI50 (MDA-MB-231 breast) 540 nM | GI50 (MOLT-4 leukemia) 465 nM | GI50 (NCI-H226 lung) 1430 nM | GI50 (OVCAR-5 ovarian) 527 nM | GI50 (SF-268 CNS) 1710 nM | GI50 (SK-MEL-28 melanoma) > 19700 nM | GI50 (SK-MEL-5 melanoma) 523 nM | GI50 (SK-OV-3 ovarian) 532 nM | GI50 (SN12C renal) 653 nM | GI50 (SNB-19 CNS) 428 nM | GI50 (T-47D breast) > 45100 nM | GI50 (UACC-257 melanoma) 1050 nM | GI50 (UO-31 renal) 595 nM
active: GI50 (A498 renal) 131 nM | GI50 (BT-549 breast) 211 nM | GI50 (CAKI-1 renal) 191 nM | GI50 (CCRF-CEM leukemia) 360 nM | GI50 (COLO 205 colon) 248 nM | GI50 (HCC-2998 colon) 313 nM | GI50 (HCT-116 colon) 281 nM | GI50 (HCT-15 colon) 202 nM | GI50 (HL-60(TB) leukemia) 186 nM | GI50 (HS 578T breast) 286 nM | GI50 (HT29 colon) 260 nM | GI50 (K-562 leukemia) 91.2 nM | GI50 (KM12 colon) 232 nM | GI50 (M14 melanoma) 192 nM | GI50 (MCF7 breast) 119 nM | GI50 (MDA-MB-435) 33.8 nM | GI50 (NCI-H23 lung) 418 nM | GI50 (NCI-H460 lung) 333 nM | GI50 (NCI-H522 lung) 81.1 nM | GI50 (NCI/ADR-RES ovarian) 356 nM | GI50 (OVCAR-3 ovarian) 333 nM | GI50 (OVCAR-8 ovarian) 398 nM | GI50 (PC-3 prostate) 345 nM | GI50 (RPMI-8226 leukemia) 348 nM | GI50 (SF-295 CNS) 262 nM | GI50 (SF-539 CNS) 198 nM | GI50 (SK-MEL-2 melanoma) 360 nM | GI50 (SNB-75 CNS) 122 nM | GI50 (SR leukemia) 54.6 nM | GI50 (SW-620 colon) 249 nM | GI50 (U251 CNS) 318 nM | GI50 (UACC-62 melanoma) 141 nM
658 nM: TGI (HL-60(TB) leukemia)
> 26800 nM: TGI (SR leukemia)
> 100000 nM: TGI (786-0 renal) | TGI (A549 NSCLC) | TGI (ACHN renal) | TGI (CAKI-1 renal) | TGI (CCRF-CEM leukemia) | TGI (DU-145 prostate) | TGI (EKVX NSCLC) | TGI (HCT-15 colon) | TGI (HOP-62 NSCLC) | TGI (HS 578T breast) | TGI (IGROV1 ovarian) | TGI (K-562 leukemia) | TGI (KM12 colon) | TGI (LOX IMVI melanoma) | TGI (M14 melanoma) | TGI (MALME-3M melanoma) | TGI (MCF7 breast) | TGI (MDA-MB-231 breast) | TGI (MOLT-4 leukemia) | TGI (NCI-H226 lung) | TGI (NCI-H23 lung) | TGI (NCI/ADR-RES ovarian) | TGI (OVCAR-4 ovarian) | TGI (OVCAR-5 ovarian) | TGI (PC-3 prostate) | TGI (RPMI-8226 leukemia) | TGI (SF-268 CNS) | TGI (SF-295 CNS) | TGI (SK-MEL-2 melanoma) | TGI (SK-MEL-28 melanoma) | TGI (SK-OV-3 ovarian) | TGI (SN12C renal) | TGI (SNB-19 CNS) | TGI (SW-620 colon) | TGI (T-47D breast) | TGI (TK-10 renal) | TGI (UACC-257 melanoma) | TGI (UACC-62 melanoma) | TGI (UO-31 renal)

Reference: PubChem BioAssay (NCI)
